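Method: 48-hour compound exposure of cells in 96-well plates, five concentrations, linear interpolation of endpoints. Here, GI50 denotes the concentration required for 50% inhibition of growth. The concentration for full growth arrest is given as TGI.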

Seven compounds from PubChem BioAssay (NCI) can be followed below.

Test systems include NCI-H460 lung; UACC-257 melanoma; HOP-92 NSCLC; NCI-H522 lung; 786-0 renal; EKVX NSCLC; U251 CNS; UO-31 renal; IGROV1 ovarian; MCF7 breast.
What all share (test): NCI tumour cell line growth inhibition, 48 h

In the case of `N#Cc1c(NCc2ccccc2)nc(NCc2ccccc2)c(C#N)c1-c1ccc(O)cc1`, the GI50 in the experiment with NCI-H460 lung is 21.2 µM; in the experiment on UACC-257 melanoma it was 43.2 µM; in the experiment with HOP-92 NSCLC it was 0.316 µM; in the experiment with NCI-H522 lung it was 20.2 µM; in the experiment on 786-0 renal, 23 µM; in the experiment on EKVX NSCLC, 48.5 µM. Also, the GI50 in the experiment on U251 CNS is 19.2 µM; with UO-31 renal, 18.6 µM; in the experiment on IGROV1 ovarian, 23.5 µM; in the experiment on MCF7 breast, 39.7 µM. Moreover, the TGI in the experiment with NCI-H460 lung is 53.6 µM; in the experiment on UACC-257 melanoma, > 100 µM; with HOP-92 NSCLC, 7.96 µM; in the experiment with NCI-H522 lung it was 75.1 µM; in the experiment with 786-0 renal it was > 100 µM; in the experiment on EKVX NSCLC, > 100 µM. Further, the TGI was 54.5 µM in the experiment with U251 CNS, 68.5 µM in the experiment with UO-31 renal, 74.8 µM in the experiment with IGROV1 ovarian and > 100 µM with MCF7 breast.

For the compound `CN(C)CCCN(CCC1CCCCC1)CCC1CCCCC1`, the GI50 in the experiment on NCI-H460 lung was 1.79 µM; in the experiment on UACC-257 melanoma it was 0.77 µM; in the experiment with HOP-92 NSCLC it was 1 µM; with NCI-H522 lung, 3.1 µM; in the experiment on 786-0 renal, 2.74 µM; with EKVX NSCLC, 5.68 µM. Moreover, the GI50 with U251 CNS was 1.67 µM; with UO-31 renal, 1.38 µM; with IGROV1 ovarian, 1.91 µM; in the experiment on MCF7 breast, 1.32 µM. Besides, the TGI in the experiment on NCI-H460 lung is 3.45 µM; with UACC-257 melanoma, 2.82 µM; with HOP-92 NSCLC, 9.7 µM; with NCI-H522 lung, 8.3 µM; with 786-0 renal it was 9.16 µM; in the experiment on EKVX NSCLC, 18.8 µM. Also, the TGI amounted to 3.81 µM in the experiment with U251 CNS, 4.24 µM with UO-31 renal, 4.65 µM with IGROV1 ovarian and 2.62 µM with MCF7 breast.

As for `COc1ccc(C=Nc2c(C(=O)Nc3cccc(Cl)c3C)sc3nc(C)c(C(=O)/C=C/c4ccc(OC)cc4)cc23)cc1`, the GI50 was 1.93 µM with NCI-H460 lung; 2.88 µM in the experiment on UACC-257 melanoma; 0.59 µM in the experiment with HOP-92 NSCLC; 0.157 µM in the experiment with NCI-H522 lung; 0.656 µM in the experiment with 786-0 renal; 2.24 µM with EKVX NSCLC. Further, the GI50 with U251 CNS was 1.56 µM; with UO-31 renal it was 2.04 µM; in the experiment on IGROV1 ovarian, 1.32 µM; in the experiment on MCF7 breast, 0.293 µM. The TGI in the experiment on NCI-H460 lung is > 29.7 µM; in the experiment on UACC-257 melanoma it was > 50 µM; in the experiment with HOP-92 NSCLC, 7.12 µM; in the experiment with 786-0 renal, > 30 µM; with EKVX NSCLC it was > 50 µM; in the experiment on U251 CNS, 18.4 µM. For the same compound, the TGI in the experiment with UO-31 renal, with IGROV1 ovarian and in the experiment on MCF7 breast was > 50 µM throughout.

For `COc1cc2c(c(OC)c1OC)-c1ccc(O)cc1[C@@H](NC(C)=O)CC2`, the GI50 in the experiment on NCI-H460 lung was 0.0363 µM; in the experiment with UACC-257 melanoma it was > 68.3 µM; in the experiment on NCI-H522 lung, 0.0242 µM; in the experiment with 786-0 renal, 0.0779 µM; with EKVX NSCLC, 0.0577 µM; in the experiment with U251 CNS, 0.0465 µM. Also, the results for the GI50 in the experiment with UO-31 renal, in the experiment on IGROV1 ovarian and with MCF7 breast were 0.279 µM, 0.0515 µM and 0.0376 µM, respectively. Moreover, the TGI in the experiment with NCI-H460 lung was > 34.9 µM; in the experiment on UACC-257 melanoma, > 100 µM; with HOP-92 NSCLC it was > 100 µM; in the experiment with NCI-H522 lung, 0.097 µM; with 786-0 renal, > 100 µM; in the experiment with EKVX NSCLC, > 100 µM. For the same compound, the TGI in the experiment on U251 CNS is > 100 µM; with UO-31 renal, > 51.2 µM; in the experiment with MCF7 breast it was > 100 µM.

For the compound `CO[C@H]1C=CO[C@@]2(C)Oc3c(C)c(O)c4c(O)c(c(CN5CCN(C)CC5)c(O)c4c3C2=O)NC(=O)/C(C)=C\C=C[C@H](C)[C@H](O)C(C)[C@@H](O)C(C)[C@H](OC(C)=O)[C@@H]1C` (some centres not stated), the TGI in the experiment on NCI-H460 lung was > 100 µM; in the experiment on UACC-257 melanoma, > 72.8 µM; with HOP-92 NSCLC, > 100 µM; in the experiment on NCI-H522 lung, 46.5 µM; in the experiment on 786-0 renal it was > 100 µM; with EKVX NSCLC, > 100 µM. The TGI with U251 CNS was > 100 µM; with UO-31 renal, > 94.4 µM; in the experiment with IGROV1 ovarian, > 100 µM; with MCF7 breast, 33.7 µM.

Take `CN(CCCCCl)P(=O)(OCCS(=O)(=O)CC(NC(=O)CCC(N)C(=O)O)C(=O)NC(C(=O)O)c1ccccc1)OCC1OC(n2ccc(N)nc2=O)C(O)C1O` (configuration not stated): the GI50 is 6.4 µM with NCI-H460 lung; 21.1 µM with UACC-257 melanoma; 4.8 µM in the experiment on HOP-92 NSCLC; 10.5 µM with NCI-H522 lung; 32.2 µM in the experiment with 786-0 renal; 67.4 µM in the experiment with EKVX NSCLC. Further, the GI50 was 29.9 µM in the experiment with U251 CNS, 8.17 µM with UO-31 renal, 3.31 µM with IGROV1 ovarian and 3.27 µM in the experiment with MCF7 breast. Moreover, the TGI with NCI-H460 lung is > 75 µM; in the experiment on UACC-257 melanoma, > 69.8 µM; in the experiment with HOP-92 NSCLC it was 74.1 µM; with NCI-H522 lung, > 75 µM; in the experiment with 786-0 renal, > 75 µM; in the experiment with EKVX NSCLC it was > 75 µM. In addition, the TGI in the experiment with U251 CNS was > 75 µM; in the experiment on UO-31 renal, > 59.7 µM; in the experiment on IGROV1 ovarian, > 47.3 µM; with MCF7 breast, > 75 µM.

As for `COC1C(O)CC(OC2CC(OC3CC(O[C@@H]4C(=O)c5c(cc6cc(OC7CC(OC8CC(O)C(O)C(C)O8)C(O)C(C)O7)c(C)c(O)c6c5O)CC4[C@H](OC)C(=O)O)OC(C)C3O)OC(C)C2O)OC1C` (some centres not stated), the GI50 with NCI-H460 lung is 1.31 µM; with UACC-257 melanoma it was 1.94 µM; in the experiment on HOP-92 NSCLC it was 4.4 µM; in the experiment with NCI-H522 lung, 1.7 µM; with 786-0 renal it was 2.1 µM; with EKVX NSCLC, 2.31 µM. The GI50 in the experiment with U251 CNS was 1.53 µM; in the experiment on UO-31 renal, 1.11 µM; in the experiment on IGROV1 ovarian, 1.76 µM; in the experiment on MCF7 breast it was 0.928 µM. In addition, the TGI in the experiment with NCI-H460 lung was > 33.3 µM; in the experiment with UACC-257 melanoma, 13.5 µM; in the experiment on HOP-92 NSCLC it was > 33.3 µM; with NCI-H522 lung, > 33.3 µM; in the experiment with 786-0 renal it was > 33.3 µM; in the experiment with EKVX NSCLC, > 33.3 µM. Moreover, the TGI in the experiment on U251 CNS, with UO-31 renal, in the experiment on IGROV1 ovarian and with MCF7 breast was > 33.3 µM in each case.
